Activity calls are given as the source filed them. No cut-off for these calls is given here.

This experiment addresses T1, Solute carrier family 2, facilitated glucose transporter member 4 (Rattus norvegicus) (UniProt P19357).
T1 sequence (whole entry): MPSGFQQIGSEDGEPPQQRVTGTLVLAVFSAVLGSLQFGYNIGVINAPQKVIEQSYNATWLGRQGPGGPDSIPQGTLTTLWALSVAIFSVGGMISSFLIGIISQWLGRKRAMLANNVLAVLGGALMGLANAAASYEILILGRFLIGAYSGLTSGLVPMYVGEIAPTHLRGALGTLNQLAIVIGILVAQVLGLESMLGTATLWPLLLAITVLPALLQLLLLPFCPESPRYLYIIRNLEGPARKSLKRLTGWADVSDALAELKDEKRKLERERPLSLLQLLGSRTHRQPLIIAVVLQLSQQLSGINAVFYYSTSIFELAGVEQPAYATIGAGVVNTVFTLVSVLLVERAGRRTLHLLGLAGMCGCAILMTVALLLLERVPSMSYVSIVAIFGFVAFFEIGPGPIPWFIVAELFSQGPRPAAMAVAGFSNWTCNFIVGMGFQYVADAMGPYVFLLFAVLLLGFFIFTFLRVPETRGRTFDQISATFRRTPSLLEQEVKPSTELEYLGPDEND
The experiment can be described thus: Enhancement of GLUT4 translocation in rat L6 cells expressing pIRAP-mOrange cDNAs at 10 uM after 10 mins by fluorescence assay relative to control. In kind it is cell-based.
Consider `C[C@H]1[C@H](C)CC[C@]2(C(=O)O)CC[C@]3(C)C(=CC[C@@H]4[C@@]5(C)C[C@@H](O)[C@H](O)C(C)(C)[C@@H]5CC[C@]43C)[C@H]12`, for which the fold change (FC) came out at 1.78.

With `CC1(C)CC[C@]2(C(=O)O)CC[C@]3(C)C(=CC[C@@H]4[C@@]5(C)CC[C@H](O)C(C)(C)[C@@H]5CC[C@]43C)[C@@H]2C1`, the fold change (FC) was 0.7.

Consider `C[C@H]1[C@H](C)CC[C@]2(C(=O)O)CC[C@]3(C)C(=CC[C@@H]4[C@@]5(C)C[C@@H](O)[C@H](O)[C@@](C)(CO)[C@@H]5[C@H](O)C[C@]43C)[C@H]12`, for which the fold change (FC) is 0.7.

On to `C[C@@H]1CC[C@]2(C(=O)O)CC[C@]3(C)C(=CC[C@@H]4[C@@]5(C)C[C@@H](O)[C@@H](O)C(C)(C)[C@@H]5CC[C@]43C)[C@@H]2[C@]1(C)O`, for which the fold change (FC) turned out to be 0.7.

For the compound `O=c1c(OC2O[C@H](CO)[C@@H](O)[C@H](O)[C@H]2O)c(-c2cc(O)c(O)c(O)c2)oc2cc(O)cc(O)c12` (some centres not stated), the result was inactive.

Regarding `CC(C)CC1C2=C(Oc3cc(O)c(C(=O)CCc4ccccc4)c(O)c31)C(C)(C)C(=O)C(C)(C)C2=O` (racemic), the fold change (FC) worked out at 0.49.

As to `O=C1c2c(O)cc(O)cc2O[C@@H](c2ccc(O)cc2)[C@@H]1O`, the outcome was inactive.

With `C[C@H]1[C@H](C)CC[C@]2(C(=O)O)CC[C@]3(C)C(=CC[C@@H]4[C@@]5(C)CC[C@H](O)C(C)(C)[C@@H]5CC[C@]43C)[C@H]12`, the fold change (FC) came out at 0.7.

Turning to `C[C@H]1[C@H](C)CC[C@]2(C(=O)O)CC[C@]3(C)C(=CC[C@@H]4[C@@]5(C)C[C@@H](O)[C@H](O)[C@@](C)(CO)[C@@H]5CC[C@]43C)[C@H]12`, the fold change (FC) was 0.47.

Turning to `O=c1c(O[C@@H]2O[C@H](CO)[C@@H](O)[C@H](O)[C@H]2O)c(-c2ccc(O)c(O)c2)oc2cc(O)cc(O)c12`, the outcome was inactive.

For the compound `C=C(C)[C@@H]1CC[C@]2(C(=O)O)CC[C@]3(C)[C@H](CC[C@@H]4[C@@]5(C)CC[C@H](O)C(C)(C)[C@@H]5CC[C@]43C)[C@@H]12`, the fold change (FC) came out at 2.38.

With `O=C(O)c1cc(O)c(O)c(O)c1`, the result was inactive.
